Assay results from US6710048B2, “Pyrazine derivatives as modulators of tyrosine kinases” (Ortho-McNeil Pharmaceutical, Inc., priority 2000, dated 2004).
Read-outs that look alike come from different tables or passages of the source.

Target: T1, CDK1 (cyclin dependent kinase 1) / cyclin B (Homo sapiens, UniProt P06493)
T1 construct: purchased New England Biolabs 6020; host or cells: insect cells
Assay: CDK1 kinase assay
Type: biochemical
Description: The term n.d. means not tested.
Assays to test compound inhibition of other kinases were preformed using methods that measure the amount of phosphorylation of a biotinylated peptide substrate. Biotinylated peptide substrates were selected from the literature as appropriate for the enzyme being evaluated. The general procedure used to assay for kinase activity is as follows: A kinase reaction mix was prepared in 50 mM Tris-HCl pH=8, 10 mM MgCl2, 0.1 mM NaVO4, 1 mM DTT, 5-10 μM ATP, 0.25-1 μM biotinylated peptide substrate, 0.2-0.8 μCuries per well ^33P-γ-ATP [2000-3000 Ci/mmol]. Assay conditions vary slightly for each protein kinase, for example, insulin receptor kinase requires 10 mM MnCl2 for activity and Calmodulin-dependent protein kinase requires calmodulin and 2 mM CaCl2. The reaction mixture was dispensed into the wells of a streptavidin coated Flashplate and 1 μl drug stock in 100% DMSO was added to a 100 μl reaction volume resulting in a final concentration of 1% DMSO in the reaction. Enzyme was diluted in 50 mM Tris-HCl pH=8.0, 0.1% BSA and added to each well. The reaction was incubated for one hour at 30° C. in the presence of compound. After one hour the reaction mix was aspirated from the plate and the plate was washed with PBS containing 100 mM EDTA. The plate was read on a scintillation counter to determine ^33P-γ-ATP incorporated into the immobilized peptide. […] A maximum and minimum signal for the assay was determined on each plate. The IC50 was calculated from the dose response curve of the percent inhibition of the maximum signal in the assay according to the formula [max signal−background/test compound signal−background (100)=% inhibition] by graphing the percent inhibition against the log concentration of test compound. Known inhibitor compounds appropriate for the kinase being assayed were also included on each plate.
VEGF-R (vascular endothelial growth factor receptor-2) is a fusion protein containing a polyhistidine tag at the N-terminus followed by amino acids 786-1343 of the rat VEGF-R2 kinase domain (GenBank Accession #U93306). CDK1 (cyclin dependent kinase 1) is isolated from insect cells expressing both the human CDK1 catalytic subunit and its positive regulatory subunit cyclin B (New England Biolabs, Beverly, Mass., Cat. #6020). CDK4 (cyclin dependent kinase 4) contains amino acids 769 to 921 of the mouse […] protein found in the GST-retinoblastoma protein construct (Santa Cruz Biotechnology, Santa Cruz, Calif.; Cat. #SC-4112). Insulin Receptor Kinase consists of residues 941-1313 of the cytoplasmic domain of the beta-subunit of the human insulin receptor (BIOMOL, Plymouth Meeting, Pa., Cat. #SE-195). Protein Kinase A is the catalytic subunit of cAMP dependent protein kinase-A purified from bovine heart (Upstate Biotech, Lake Placid, N.Y., Cat#14-114). PKC (protein kinase-C) is the gamma or beta isoform of the human protein produced in insect cells (BIOMOL, Plymouth Meeting, Pa., Cat. #SE-143). Casein Kinase 1 is a truncation at amino acid 318 of the C-terminal portion of the rat CK1 delta isoform produced in E.coli (New England Biolabs, Beverly, Mass., Cat. #6030). Casein Kinase 2 includes the alpha and beta subunits of the human CK2 protein produced in E.coli (New England Biolabs, Beverly, Mass., Cat. #6010). Calmodulin Kinase (calmodulin-dependent protein kinase 2) is a truncated version of the alpha subunit of the rat protein produced in insect cells (New England Biolabs, Beverly, Mass., Cat. #6060). Glycogen Synthase Kinase-3 is the beta isoform of the rabbit enzyme produced in E. coli (New England Biolabs, Beverly, Mass., Cat. #6040). MAP Kinase is the rat ERK-2 isoform containing a polyhistidine tag at the N-terminus produced in E. coli. and activated by phosphorylation with MEK1 prior to purification (BIOMOL, Plymouth Meeting, Pa., Cat. #SE-137). EGFR (epidermal growth factor receptor) is purified from human A431 cell membranes (Sigma, St. Louis, Mo., Cat.# E3641). […]

[1] = Table 4 kinase selectivity, 10 = approximate value, read-out: IC50, Assay 2 CDK1
[2] = Tables 1-3, >10 or >100 = no 50% inhibition at highest dose tested, read-out: CDK IC50

T1 sequence (P06493 whole entry): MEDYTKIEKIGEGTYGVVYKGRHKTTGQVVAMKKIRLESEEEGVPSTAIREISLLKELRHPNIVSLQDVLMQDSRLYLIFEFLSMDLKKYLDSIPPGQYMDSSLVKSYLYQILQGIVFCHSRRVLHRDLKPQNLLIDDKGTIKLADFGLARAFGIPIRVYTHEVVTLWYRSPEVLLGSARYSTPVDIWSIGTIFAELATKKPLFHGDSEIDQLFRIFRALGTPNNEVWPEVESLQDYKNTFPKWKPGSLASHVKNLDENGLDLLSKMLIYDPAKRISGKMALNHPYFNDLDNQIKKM
T1 sequence (P14635 whole entry partner): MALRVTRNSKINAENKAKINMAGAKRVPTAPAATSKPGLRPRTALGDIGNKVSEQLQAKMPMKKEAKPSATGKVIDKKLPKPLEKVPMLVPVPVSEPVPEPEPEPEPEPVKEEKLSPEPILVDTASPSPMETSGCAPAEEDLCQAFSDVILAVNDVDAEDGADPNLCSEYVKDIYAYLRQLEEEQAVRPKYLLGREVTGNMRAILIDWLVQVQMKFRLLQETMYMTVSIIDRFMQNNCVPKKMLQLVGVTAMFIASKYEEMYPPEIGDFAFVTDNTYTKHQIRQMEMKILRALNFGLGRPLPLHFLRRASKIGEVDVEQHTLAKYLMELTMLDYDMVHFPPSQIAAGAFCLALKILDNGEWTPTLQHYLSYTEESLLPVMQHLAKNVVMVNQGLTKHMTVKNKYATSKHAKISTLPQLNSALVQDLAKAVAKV

| SMILES | IC50 [1] | IC50 [2] |
| --- | --- | --- |
| Clc1cccc(Nc2cncc(-c3cncc(NCCCN4CCCCC4)c3)n2)c1 [Cmd 73] | 6.1 µM | 3.24 µM |
| OCCCNc1cncc(-c2cncc(Nc3cccc(Cl)c3)n2)c1 [Cmd 4] | > 10 µM | 5.96 µM |
| Clc1cccc(Nc2cncc(-c3cncc(NCCCn4cncn4)c3)n2)c1 [Cmd 76] | > 100 µM | > 10 µM |
| Clc1cccc(Nc2cncc(-c3cncc(NCCCc4cccnc4)c3)n2)c1 [Cmd 72] | > 100 µM | > 10 µM |
| CN(C)CCCNc1cncc(-c2cncc(Nc3cccc(Cl)c3)n2)c1 [Cmd 35] | > 10 µM | ~10 µM |
| OCCCCNc1cncc(-c2cncc(Nc3cccc(Cl)c3)n2)c1 [Cmd 32] | > 100 µM | > 100 µM |
| CN(C)CCNc1cncc(-c2cncc(Nc3cccc(Cl)c3)n2)c1 [Cmd 33, N′-[5-[6-[(3-chlorophenyl)amino]pyrazinyl]-3-pyridinyl]-N^2,N^2-dimethyl-1,2-ethanediamine] | > 10 µM | ~10 µM |
| Clc1cccc(Nc2cncc(-c3cncc(NCCCc4ccncc4)c3)n2)c1 [Cmd 71] | > 100 µM | > 10 µM |
| O=C(NCCCO)c1cncc(-c2cncc(Nc3cccc(Cl)c3)n2)c1 [Cmd 39] | 34.8 µM | 34.8 µM |
| Clc1cccc(Nc2cncc(-c3cncc(NCCCn4cccn4)c3)n2)c1 [Cmd 75] | > 100 µM | > 10 µM |
